The values that follow come from ChEMBL document CHEMBL5303304, “EUbOPEN Chemogenomics Library - IncuCyte” (2023).

Holding throughout (assay type): toxicity, cell-based
One data set concerns Fibroblast. Briefly: Incucyte cell viability with human fibroblast. The conditions noted are these: 10 µM, compound concentration 10 uM.
The test system of a further data set is HEK-293T. Briefly: Incucyte cell viability with HEK293T. The conditions noted are these: human, 10 µM, compound concentration 10 uM.
The test system of the next data set is U2OS. Description: Incucyte cell viability with U2OS. The conditions noted are these: human, 10 µM, compound concentration 10 uM.

Molecules are shown by their SMILES.
Note: unitless GR value; below 1 slowed growth and below 0 cell loss.

For the molecule `COc1cc(-c2cn(C)c(=O)c3cnccc23)c(OC)cc1CN(C)C`, the “Growth Rate” value worked out at 0.79 in the data set on Fibroblast (6 h, replicate number 1); 0.69 with Fibroblast (6 h, replicate number 2); 0.84 with Fibroblast (12 h, replicate number 1); 0.23 in the data set with Fibroblast (12 h, replicate number 2); 0.8 in the data set with Fibroblast (18 h, replicate number 1); 0.53 with Fibroblast (18 h, replicate number 2). Moreover, the “Growth Rate” value was found to be 0.8 with Fibroblast (24 h, replicate number 1); 0.5 with Fibroblast (24 h, replicate number 2); 0.44 in the data set on HEK-293T (0 h, replicate number 1); 0.24 in the data set with HEK-293T (6 h, replicate number 2); 0.4 in the data set on HEK-293T (12 h, replicate number 2); 0.77 with HEK-293T (18 h, replicate number 1). For the same molecule, the “Growth Rate” value with HEK-293T (18 h, replicate number 2) stood at 0.68; with HEK-293T (24 h, replicate number 1), 0.68; in the data set with HEK-293T (24 h, replicate number 2) it was 0.77; with U2OS (0 h, replicate number 1) it was 0.29; with U2OS (6 h, replicate number 1), 0.38; with U2OS (12 h, replicate number 1), 0.8. Besides, the “Growth Rate” value with U2OS (24 h, replicate number 1) worked out at 0.97.

In the case of `COc1cc(-c2cn(C)c(=O)c3cnccc23)cc(OC)c1CN(C)C`, the “Growth Rate” value in the data set on Fibroblast (0 h, replicate number 1) is on record as 0.17; in the data set with Fibroblast (6 h, replicate number 1) it was 0.2; in the data set with Fibroblast (6 h, replicate number 2), -0.34; in the data set on Fibroblast (12 h, replicate number 1), 0.48; in the data set on Fibroblast (12 h, replicate number 2), 0.15; with Fibroblast (18 h, replicate number 1), 0.56. For the same molecule, the “Growth Rate” value is 0.6 with Fibroblast (18 h, replicate number 2); 0.58 with Fibroblast (24 h, replicate number 1); 0.85 in the data set with Fibroblast (24 h, replicate number 2); 0.56 in the data set with HEK-293T (0 h, replicate number 1); 0.78 in the data set on HEK-293T (6 h, replicate number 1); 0.89 in the data set on HEK-293T (6 h, replicate number 2). Further, the “Growth Rate” value is on record as 0.85 with HEK-293T (18 h, replicate number 1); 0.89 with HEK-293T (18 h, replicate number 2); 0.92 in the data set with HEK-293T (24 h, replicate number 1); 0.83 in the data set on U2OS (0 h, replicate number 1); 0.87 in the data set with U2OS (6 h, replicate number 1); 0.61 with U2OS (6 h, replicate number 2). In addition, the “Growth Rate” value was determined as 0.86 in the data set with U2OS (12 h, replicate number 1); 0.85 in the data set on U2OS (12 h, replicate number 2); 0.97 in the data set on U2OS (24 h, replicate number 1).

As to `CC(C)(O)CNC(=O)N1C(=O)N(c2cccc(C(F)(F)F)c2)C2=C(C(=O)CC2)[C@@H]1c1ccc(C#N)cc1`, the “Growth Rate” value is 0.57 with Fibroblast (6 h, replicate number 1); 0.94 with Fibroblast (18 h, replicate number 2); 0.26 in the data set with HEK-293T (0 h, replicate number 1); 0.97 with HEK-293T (12 h, replicate number 2); 0.14 in the data set on U2OS (0 h, replicate number 1); 0.14 in the data set with U2OS (6 h, replicate number 1). In addition, the “Growth Rate” value in the data set with U2OS (6 h, replicate number 2) is reported as 0.9; with U2OS (12 h, replicate number 1) it was 0.58; in the data set with U2OS (18 h, replicate number 1) it was 0.65; with U2OS (24 h, replicate number 1) it was 0.76.

Turning to `CSc1nc2c(c(=O)n(C)c(=O)n2C)n1C`, the “Growth Rate” value is listed as -1 in the data set with Fibroblast (0 h, replicate number 1); -0.52 with Fibroblast (0 h, replicate number 2); 0.03 in the data set with Fibroblast (6 h, replicate number 1); -0.57 in the data set on Fibroblast (6 h, replicate number 2); 0.58 in the data set on Fibroblast (12 h, replicate number 1); 0.87 in the data set on Fibroblast (18 h, replicate number 1). The “Growth Rate” value is on record as 0.71 with Fibroblast (24 h, replicate number 1); 0.92 with Fibroblast (24 h, replicate number 2); 0.12 with HEK-293T (0 h, replicate number 1); -0.14 in the data set with HEK-293T (6 h, replicate number 2); 0.78 in the data set on HEK-293T (12 h, replicate number 2); 1 in the data set with HEK-293T (18 h, replicate number 2). The “Growth Rate” value in the data set with U2OS (0 h, replicate number 1) is listed as 0.57; in the data set with U2OS (6 h, replicate number 1), 0.84; in the data set with U2OS (6 h, replicate number 2), 0.49; with U2OS (12 h, replicate number 2), 0.74; in the data set on U2OS (18 h, replicate number 2), 0.86; in the data set on U2OS (24 h, replicate number 2), 0.97.

Take `CC(C)(O)CNC(=O)N1C(=O)N(c2cccc(C(F)(F)F)c2)C2=C(C(=O)CC2)[C@H]1c1ccc(C#N)cc1`: the “Growth Rate” value with Fibroblast (0 h, replicate number 2) is 0.22; in the data set on Fibroblast (18 h, replicate number 2), 0.82; in the data set on Fibroblast (24 h, replicate number 2), 0.97; in the data set on HEK-293T (0 h, replicate number 1), -0.47; with HEK-293T (12 h, replicate number 2), 0.98; in the data set with HEK-293T (18 h, replicate number 1), 0.94. The “Growth Rate” value with HEK-293T (18 h, replicate number 2) amounted to 1; in the data set with HEK-293T (24 h, replicate number 1) it was 0.94; in the data set on U2OS (0 h, replicate number 1), 0.26; in the data set on U2OS (6 h, replicate number 1), 0.67; with U2OS (12 h, replicate number 1), 0.56; in the data set with U2OS (12 h, replicate number 2) it was 0.96. Also, the “Growth Rate” value was 0.85 in the data set on U2OS (18 h, replicate number 1) and 0.86 in the data set with U2OS (24 h, replicate number 1).

In the case of `COCCOCn1c(S(C)(=O)=O)nc2c1c(=O)n(C)c(=O)n2C`, the “Growth Rate” value in the data set on Fibroblast (0 h, replicate number 1) is on record as -1; in the data set with Fibroblast (6 h, replicate number 1), -0.48; with Fibroblast (6 h, replicate number 2) it was -0.97; in the data set on Fibroblast (12 h, replicate number 1), 0; in the data set on Fibroblast (12 h, replicate number 2), 0.03; in the data set on Fibroblast (18 h, replicate number 1), 0.05. The “Growth Rate” value with Fibroblast (18 h, replicate number 2) was 0.24; with Fibroblast (24 h, replicate number 1), 0.45; with Fibroblast (24 h, replicate number 2) it was 0.7; in the data set on HEK-293T (0 h, replicate number 1), 0.35; in the data set on HEK-293T (0 h, replicate number 2), 0.7; in the data set on HEK-293T (18 h, replicate number 1), 0.74. Moreover, the “Growth Rate” value in the data set on HEK-293T (18 h, replicate number 2) was determined as 0.92; in the data set with HEK-293T (24 h, replicate number 1), 0.86; with HEK-293T (24 h, replicate number 2), 0.9; in the data set with U2OS (0 h, replicate number 1), 0.81; in the data set on U2OS (6 h, replicate number 1), 0.11; in the data set with U2OS (12 h, replicate number 1), 0.55. Further, the “Growth Rate” value in the data set with U2OS (18 h, replicate number 1) was found to be 0.93; with U2OS (24 h, replicate number 1), 0.76.

With `Cc1cc(CN)cc(C)c1-c1ncn(C)c1-c1cncn1C.Cl`, the “Growth Rate” value in the data set on Fibroblast (0 h, replicate number 1) is -1; in the data set with Fibroblast (6 h, replicate number 1) it was 0.96; in the data set with Fibroblast (6 h, replicate number 2) it was -0.33; in the data set on Fibroblast (12 h, replicate number 2), 0.59; in the data set on Fibroblast (18 h, replicate number 2), 0.77; in the data set with Fibroblast (24 h, replicate number 2), 0.86. For the same molecule, the “Growth Rate” value with HEK-293T (0 h, replicate number 1) is given as -0.38; in the data set with HEK-293T (0 h, replicate number 2) it was 0.26; with HEK-293T (18 h, replicate number 1), 0.98; in the data set on U2OS (12 h, replicate number 2), 0.69; in the data set with U2OS (18 h, replicate number 2), 0.99.

As to `CC1CCN(C(=O)[C@H](CCn2cccc2C#N)NS(=O)(=O)c2cccc3[nH]ccc23)CC1`, the “Growth Rate” value with Fibroblast (12 h, replicate number 2) is on record as 0.9; in the data set on Fibroblast (24 h, replicate number 2), 0.84; in the data set on HEK-293T (0 h, replicate number 1) it was -0.16; in the data set with HEK-293T (0 h, replicate number 2) it was 0.25; in the data set on HEK-293T (12 h, replicate number 1), 0.92; with U2OS (0 h, replicate number 1), 0.73. The “Growth Rate” value in the data set on U2OS (0 h, replicate number 2) stood at 0.6; with U2OS (6 h, replicate number 1), 0.98; in the data set on U2OS (12 h, replicate number 1), 0.91; in the data set on U2OS (12 h, replicate number 2) it was 0.81; in the data set on U2OS (18 h, replicate number 1) it was 0.99; with U2OS (18 h, replicate number 2) it was 0.91. Further, the “Growth Rate” value worked out at 0.98 with U2OS (24 h, replicate number 1) and 0.97 in the data set on U2OS (24 h, replicate number 2).

For the molecule `CC(C)c1nc2c(c3c1[C@@H](c1ccc(C(F)(F)F)cc1)OC31CCOCC1)[C@@H](O)CC(C)(C)C2.Cl`, the “Growth Rate” value in the data set on Fibroblast (0 h, replicate number 1) is given as -1; with Fibroblast (6 h, replicate number 1), -0.53; in the data set on Fibroblast (12 h, replicate number 1), -0.05; in the data set on Fibroblast (12 h, replicate number 2), 0.76; in the data set with Fibroblast (18 h, replicate number 1), 0.15; in the data set with Fibroblast (24 h, replicate number 1), 0.49. The “Growth Rate” value is recorded as 0.96 in the data set on Fibroblast (24 h, replicate number 2); 0.12 in the data set with HEK-293T (0 h, replicate number 1); 0.11 with HEK-293T (6 h, replicate number 2); 0.73 with HEK-293T (12 h, replicate number 1); 0.61 in the data set with HEK-293T (12 h, replicate number 2); 0.63 with HEK-293T (18 h, replicate number 1). Moreover, the “Growth Rate” value in the data set on HEK-293T (18 h, replicate number 2) came to 0.97; in the data set on HEK-293T (24 h, replicate number 1), 0.78; in the data set on HEK-293T (24 h, replicate number 2), 0.8; in the data set on U2OS (6 h, replicate number 1), 0.88; in the data set with U2OS (12 h, replicate number 2), 0.78; with U2OS (18 h, replicate number 2) it was 0.78. The “Growth Rate” value with U2OS (24 h, replicate number 2) was found to be 0.87.

Consider `C[C@@H]1C[C@H](C)CN(c2ncc(Cl)c(Nc3ccc4c(c3)cc(OC(C)(C)C(=O)O)c(=O)n4C)n2)C1`, for which the “Growth Rate” value in the data set with Fibroblast (12 h, replicate number 2) is recorded as 0.53; in the data set with Fibroblast (18 h, replicate number 2) it was 0.8; with Fibroblast (24 h, replicate number 2), 0.99; with HEK-293T (0 h, replicate number 1), 0.98; in the data set with HEK-293T (0 h, replicate number 2) it was 0.84; in the data set on U2OS (0 h, replicate number 1), 0.85. The “Growth Rate” value in the data set on U2OS (0 h, replicate number 2) is -0.87; in the data set on U2OS (6 h, replicate number 1) it was 0.72; in the data set on U2OS (6 h, replicate number 2), -0.32; with U2OS (12 h, replicate number 2) it was 0.42; with U2OS (18 h, replicate number 2), 0.57; in the data set with U2OS (24 h, replicate number 1), 0.78. The “Growth Rate” value in the data set on U2OS (24 h, replicate number 2) came to 0.72.

On to `CCn1c(CNC(=O)c2nc(Cl)cnc2N)[n+](CC)c2ccc(C(=O)N(C)CCN(C)C)cc21.[Cl-]`, for which the “Growth Rate” value in the data set on Fibroblast (0 h, replicate number 2) is recorded as -0.38; in the data set with Fibroblast (6 h, replicate number 2), -0.24; in the data set on Fibroblast (12 h, replicate number 2), 0.59; with Fibroblast (18 h, replicate number 2), 0.7; in the data set with Fibroblast (24 h, replicate number 2), 0.96; in the data set with HEK-293T (0 h, replicate number 1) it was 0.65. Moreover, the “Growth Rate” value came out at 0.44 in the data set with HEK-293T (0 h, replicate number 2); 0.55 with HEK-293T (6 h, replicate number 2); 0.57 in the data set with HEK-293T (12 h, replicate number 2); 0.77 in the data set with HEK-293T (18 h, replicate number 2); 0.84 in the data set with HEK-293T (24 h, replicate number 2); 0.81 in the data set on U2OS (0 h, replicate number 1). Further, the “Growth Rate” value stood at 0.28 in the data set on U2OS (6 h, replicate number 1); 0.97 in the data set on U2OS (6 h, replicate number 2); 0.84 in the data set on U2OS (12 h, replicate number 1); 0.84 with U2OS (24 h, replicate number 1).
